# According to article PMC7863742, “Sensitive Fluorescence Assay for the Detection of Alkaline Phosphatase Based on a Cu^2+-Thiamine System” (Sensors (Basel, Switzerland), 2021):
# pIC50: −log10 of the molar value.
# Target: Alkaline phosphatase (ALP)
# Experiment: Cu2+-thiamine fluorescence assay of ALP hydrolysis of ascorbic acid 2-phosphate
# Assay type: biochemical
structure (smiles),measurement,value
[O]=[V]([OH])([OH])[OH] [Na3VO4],pIC50,3.58
